Reference: patent publication US8802597B2, “Herbicidal pyrimidines” (E I du Pont de Nemours and Company, priority 2003, dated 2014)

Legend:
Type in all cases: in vivo
[1] = system: velvetleaf (Abutilon theophrasti); test: Test B pre/postemergence
Procedure, shortened: (§1)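 Pre: compound (non-phytotoxic solvent + surfactant) applied to freshly planted seeds. Post: same formulation sprayed on 2–18 cm plants, 1- to 4-leaf. Readout: visual control rating 0–100 vs controls, 13–15 d, greenhouse.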

[2] = system: Surinam grass (Brachiaria decumbens); test: Test B pre/postemergence
Procedure, shortened: as §1

[3] = system: wheat (Triticum aestivum); test: Test B pre/postemergence
Procedure, shortened: as §1

[4] = system: lambsquarters (Chenopodium album); test: Test B pre/postemergence
Procedure, shortened: as §1

[5] = system: pigweed (Amaranthus retroflexus); test: Test B pre/postemergence
Procedure, shortened: as §1

[6] = system: giant foxtail (Setaria faberii); test: Test B pre/postemergence
Procedure, shortened: as §1

[7] = system: cocklebur (Xanthium strumarium); test: Test B pre/postemergence
Procedure, shortened: as §1

corn (Zea mays) = test: Test B pre/postemergence
Procedure, shortened: as §1

[8] = system: crabgrass (Digitaria sanguinalis); test: Test B pre/postemergence
Procedure, shortened: as §1

[9] = system: morningglory (Ipomoea coccinea); test: Test B pre/postemergence
Procedure, shortened: as §1

[10] = system: barnyardgrass (Echinochloa crus-galli); test: Test B pre/postemergence
Procedure, shortened: as §1

[11] = system: duck salad (Heteranthera limosa); test: Test B flooded paddy test; details: Flood, scale 0 to 100
Procedure, shortened: (§2)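 Rice, umbrella sedge, duck salad and barnyardgrass grown to 2-leaf stage under flooded paddy conditions and treated with formulated test chemicals. Kept in greenhouse 13–15 days, then visually rated against untreated controls on a 0–100 scale (0 no effect, 100 complete control).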

[12] = system: umbrella sedge (Cyperus difformis); test: Test B flooded paddy test; details: Flood, scale 0 to 100
Procedure, shortened: as §2

rice (Oryza sativa) = test: Test B flooded paddy test; details: Flood, scale 0 to 100
Procedure, shortened: as §2

[13] = system: barnyardgrass (Echinochloa crus-galli); test: Test B flooded paddy test; details: Flood
Procedure, shortened: as §2

wild oat (Avena fatua) = test: Test B postemergence; details: for Oat, Wild plant response rating: scale 0 to 100 (0 no effect, 100 complete control)
Procedure, shortened: as §1

[14] = system: blackgrass (Alopecurus myosuroides); test: Test B postemergence; details: for Blackgrass plant response rating: scale 0 to 100 (0 no effect, 100 complete control)
Procedure, shortened: as §1

[15] = system: morningglory (Ipomoea spp.); test: Test A pre/postemergence
Procedure, shortened: (§3)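 Ratings: 0 = no effect, 100 = complete control, assessed visually about ten days post-treatment in a greenhouse. Applications: soil-directed preemergence spray and postemergence spray on 1- to 2-leaf plants, both using a surfactant-containing non-phytotoxic solvent formulation.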

[16] = system: velvetleaf (Abutilon theophrasti); test: Test A pre/postemergence
Procedure, shortened: as §3

[17] = system: crabgrass (Digitaria sanguinalis); test: Test A pre/postemergence
Procedure, shortened: as §3

[18] = system: giant foxtail (Setaria faberi); test: Test A pre/postemergence
Procedure, shortened: as §3

[19] = system: redroot pigweed (Amaranthus retroflexus); test: Test A pre/postemergence
Procedure, shortened: as §3

[20] = system: barnyardgrass (Echinochloa crus-galli); test: Test A pre/postemergence
Procedure, shortened: as §3

[21] = Postemergence, 62 g ai/ha, scale 0 to 100 (0 no effect, 100 complete control)
[22] = Postemergence, 125 g ai/ha, scale 0 to 100 (0 no effect, 100 complete control)
[23] = Preemergence, 62 g ai/ha, scale 0 to 100, 0 no effect, 100 complete control
[24] = Preemergence, 125 g ai/ha, scale 0 to 100 (0 no effect, 100 complete control)
[25] = Postemergence, 125 g ai/ha, 0 to 100 scale (0 no effect, 100 complete control)
[26] = Postemergence, 500 g ai/ha, 0 to 100 scale (0 no effect, 100 complete control)
[27] = Preemergence, 125 g ai/ha, 0 to 100 scale where 0 is no effect and 100 is complete control, approximately ten days
[28] = Preemergence, 500 g ai/ha, 0 to 100 scale where 0 is no effect and 100 is complete control, approximately ten days
[29] = Postemergence, 500 g ai/ha, scale 0 to 100
[30] = Preemergence, 500 g ai/ha, scale 0 to 100 (0 no effect, 100 complete control)

COC(=O)c1nc(-c2ccc(F)cc2)nc(N)c1Br [Compound 92]
Velvetleaf plant response rating [1, 21]: 50
Velvetleaf plant response rating [1, 22]: 60
Plant response rating, Velvetleaf [1, 23]: 50
Plant response rating, Velvetleaf [1, 24]: 70
Surinam Grass plant response rating [2, 21]: 0
Surinam Grass plant response rating [2, 22]: 10
Plant response rating, Surinam Grass [2, 23]: 0
Plant response rating, Surinam Grass [2, 24]: 0
Wheat plant response rating [3, 21]: 0
Wheat plant response rating [3, 22]: 0
Plant response rating, Wheat [3, 23]: 0
Plant response rating, Wheat [3, 24]: 30
Lambsquarters plant response rating [4, 21]: 90
Lambsquarters plant response rating [4, 22]: 90
Plant response rating, Lambsquarters [4, 23]: 50
Plant response rating, Lambsquarters [4, 24]: 80
Pigweed plant response rating [5, 21]: 70
Pigweed plant response rating [5, 22]: 80
Plant response rating, Pigweed [5, 23]: 40
Plant response rating, Pigweed [5, 24]: 80
Foxtail, Giant plant response rating [6, 21]: 20
Foxtail, Giant plant response rating [6, 22]: 30
Plant response rating, Foxtail, Giant [6, 23]: 0
Plant response rating, Foxtail, Giant [6, 24]: 10
Cocklebur plant response rating [7, 21]: 60
Cocklebur plant response rating [7, 22]: 80
Plant response rating, Cocklebur [7, 23]: 40
Plant response rating, Cocklebur [7, 24]: 50
Corn plant response rating (corn (Zea mays); [21]): 0
Corn plant response rating (corn (Zea mays); [22]): 0
Plant response rating, Corn (corn (Zea mays); [23]): 0
Plant response rating, Corn (corn (Zea mays); [24]): 0
Crabgrass plant response rating [8, 21]: 0
Crabgrass plant response rating [8, 22]: 20
Plant response rating, Crabgrass [8, 23]: 0
Plant response rating, Crabgrass [8, 24]: 10
Morningglory plant response rating [9, 21]: 50
Morningglory plant response rating [9, 22]: 60
Plant response rating, Morningglory [9, 23]: 0
Plant response rating, Morningglory [9, 24]: 0
Barnyardgrass plant response rating [10, 21]: 10
Barnyardgrass plant response rating [10, 22]: 10
Plant response rating, Barnyardgrass [10, 23]: 10
Plant response rating, Barnyardgrass [10, 24]: 30
Plant response rating, Ducksalad ([11]; 125 g ai/ha): 80
Plant response rating, Ducksalad ([11]; 500 g ai/ha): 90
Plant response rating, Sedge, Umbrella ([12]; 125 g ai/ha): 80
Plant response rating, Sedge, Umbrella ([12]; 500 g ai/ha): 90
Plant response rating, Rice (rice (Oryza sativa); 125 g ai/ha): 0
Plant response rating, Rice (rice (Oryza sativa); 500 g ai/ha): 0
Plant response rating, Barnyardgrass ([13]; 125 g ai/ha, scale 0 to 100): 0
Plant response rating, Barnyardgrass ([13]; 500 g ai/ha, scale 0 to 100): 0
Oat, Wild plant response rating (wild oat (Avena fatua); 62 g ai/ha): 0
Oat, Wild plant response rating (wild oat (Avena fatua); 125 g ai/ha): 0
Blackgrass plant response rating ([14]; 62 g ai/ha): 20
Blackgrass plant response rating ([14]; 125 g ai/ha): 20
Plant response rating, Morningglory [15, 25]: 45
Plant response rating, Morningglory [15, 26]: 75
Plant response rating, Morningglory [15, 27]: 0
Plant response rating, Morningglory [15, 28]: 0
Plant response rating, Velvetleaf [16, 25]: 45
Plant response rating, Velvetleaf [16, 26]: 70
Plant response rating, Velvetleaf [16, 27]: 10
Plant response rating, Velvetleaf [16, 28]: 45
Plant response rating, Crabgrass [17, 25]: 0
Plant response rating, Crabgrass [17, 26]: 5
Plant response rating, Crabgrass [17, 27]: 0
Plant response rating, Crabgrass [17, 28]: 0
Plant response rating, Foxtail, Giant [18, 25]: 0
Plant response rating, Foxtail, Giant [18, 26]: 0
Plant response rating, Foxtail, Giant [18, 27]: 0
Plant response rating, Foxtail, Giant [18, 28]: 0
Plant response rating, Pigweed [19, 25]: 35
Plant response rating, Pigweed [19, 26]: 70
Plant response rating, Pigweed [19, 27]: 15
Plant response rating, Pigweed [19, 28]: 45
Plant response rating, Barnyardgrass [20, 25]: 0
Plant response rating, Barnyardgrass [20, 26]: 0
Plant response rating, Barnyardgrass [20, 27]: 0
Plant response rating, Barnyardgrass [20, 28]: 0

CC=NNc1nc(C2CC2)nc(C(=O)OC)c1Br [Compound 124]
Velvetleaf plant response rating [1, 22]: 20
Plant response rating, Velvetleaf [1, 29]: 50
Plant response rating, Velvetleaf [1, 24]: 20
Plant response rating, Velvetleaf [1, 30]: 50
Surinam Grass plant response rating [2, 22]: 0
Plant response rating, Surinam Grass [2, 29]: 0
Plant response rating, Surinam Grass [2, 24]: 0
Plant response rating, Surinam Grass [2, 30]: 0
Wheat plant response rating [3, 22]: 0
Plant response rating, Wheat [3, 29]: 30
Plant response rating, Wheat [3, 24]: 0
Plant response rating, Wheat [3, 30]: 0
Lambsquarters plant response rating [4, 22]: 40
Plant response rating, Lambsquarters [4, 29]: 90
Plant response rating, Lambsquarters [4, 24]: 0
Plant response rating, Lambsquarters [4, 30]: 70
Pigweed plant response rating [5, 22]: 50
Plant response rating, Pigweed [5, 29]: 90
Plant response rating, Pigweed [5, 24]: 20
Plant response rating, Pigweed [5, 30]: 70
Foxtail, Giant plant response rating [6, 22]: 10
Plant response rating, Foxtail, Giant [6, 29]: 20
Plant response rating, Foxtail, Giant [6, 24]: 0
Plant response rating, Foxtail, Giant [6, 30]: 0
Cocklebur plant response rating [7, 22]: 30
Plant response rating, Cocklebur [7, 29]: 80
Plant response rating, Cocklebur [7, 24]: 10
Plant response rating, Cocklebur [7, 30]: 60
Corn plant response rating (corn (Zea mays); [22]): 0
Plant response rating, Corn (corn (Zea mays); [29]): 0
Plant response rating, Corn (corn (Zea mays); [24]): 0
Plant response rating, Corn (corn (Zea mays); [30]): 0
Crabgrass plant response rating [8, 22]: 10
Plant response rating, Crabgrass [8, 29]: 40
Plant response rating, Crabgrass [8, 24]: 0
Plant response rating, Crabgrass [8, 30]: 0
Morningglory plant response rating [9, 22]: 50
Plant response rating, Morningglory [9, 29]: 100
Plant response rating, Morningglory [9, 24]: 10
Plant response rating, Morningglory [9, 30]: 60
Barnyardgrass plant response rating [10, 22]: 0
Plant response rating, Barnyardgrass [10, 29]: 40
Plant response rating, Barnyardgrass [10, 24]: 0
Plant response rating, Barnyardgrass [10, 30]: 0
Plant response rating, Ducksalad ([11]; 1000 g ai/ha): 0
Plant response rating, Sedge, Umbrella ([12]; 1000 g ai/ha): 0
Plant response rating, Rice (rice (Oryza sativa); 1000 g ai/ha): 0
Plant response rating, Barnyardgrass ([13]; 1000 g ai/ha, scale 0 (no effect) to 100 (complete control)): 0
Oat, Wild plant response rating (wild oat (Avena fatua); 125 g ai/ha): 0
Plant response rating, Oat, Wild (wild oat (Avena fatua); 500 g ai/ha, scale 0 to 100): 30
Blackgrass plant response rating ([14]; 125 g ai/ha): 0
Plant response rating, Blackgrass ([14]; 500 g ai/ha, scale 0 to 100): 40
